The source of these data is ChEMBL document CHEMBL1138534, “Cellular effects of reversed amidines on Trypanosoma cruzi” (Antimicrob Agents Chemother, 2007).

Test [1] relates to Trypanosoma cruzi. Kind of test: Antitrypanosomal activity against Trypanosoma cruzi Y amastigotes assessed as disorganization of subpellicular mitochondria at IC50 after 24 hrs by transmission electron microscopy. It counts as functional, organism-based.
Test [2] deals with Trypanosoma cruzi. The experiment in a line: Antitrypanosomal activity against Trypanosoma cruzi Y bloodstream trypomastigotes assessed as parasite death at 3.5 uM after 24 hrs by light microscope. The format is functional.
The subject of test [3] is Trypanosoma cruzi. Kind of test: Antitrypanosomal activity against Trypanosoma cruzi Y bloodstream trypomastigotes assessed as parasite lysis at 3.5 uM after 24 hrs by light microscope. It counts as functional.
Test [4] relates to Trypanosoma cruzi. The experiment in a line: Antitrypanosomal activity against Trypanosoma cruzi Y bloodstream trypomastigotes assessed as parasite death at 0.014 uM after 24 hrs by light microscope. The format is functional.
The subject of test [5] is Trypanosoma cruzi. The experiment in a line: Antitrypanosomal activity against Trypanosoma cruzi Y bloodstream trypomastigotes after 24 hrs by light microscope. The format is functional, organism-based.
For test [6], the system named is Trypanosoma cruzi. The experiment in a line: Antitrypanosomal activity against Trypanosoma cruzi Y amastigotes after 24 hrs by light microscope. The format is functional, organism-based.
In test [7] the test system is Trypanosoma cruzi. The experiment in a line: Antitrypanosomal activity against Trypanosoma cruzi Y bloodstream trypomastigotes assessed as reduction in mitochondrial membrane potential at IC50 after 24 hrs by flow cytometry. The format is functional. Details: scale not given: the % may be the effect or the level left.
Test [8] concerns Trypanosoma cruzi. The experiment in a line: Antitrypanosomal activity against Trypanosoma cruzi Y amastigotes assessed as swelling and electrodense mitochondria at IC50 after 24 hrs by transmission electron microscopy. The format is functional, organism-based.
The test system of test [9] is Trypanosoma cruzi. Kind of test: Antitrypanosomal activity against Trypanosoma cruzi Y amastigotes assessed as intense vesicular profile in flageller pocket at IC50 after 24 hrs by transmission electron microscopy. The format is functional, organism-based.
Test [10] deals with Trypanosoma cruzi. The experiment in a line: Antitrypanosomal activity against Trypanosoma cruzi Y bloodstream trypomastigotes at 1.18 uM after 2 hrs by light microscope. It counts as functional.
Test [11] has as its system Trypanosoma cruzi. Kind of test: Antitrypanosomal activity against Trypanosoma cruzi Y bloodstream trypomastigotes assessed as swelling in mitochondria and kinetoplast after 24 hrs by transmission electron micrograph. The format is functional, organism-based.
For test [12], the system named is Trypanosoma cruzi. The experiment in a line: Antitrypanosomal activity against Trypanosoma cruzi Y bloodstream trypomastigotes assessed as alteration in nuclear morphology after 24 hrs by transmission electron micrograph. It counts as functional, organism-based.
For test [13], the system named is Trypanosoma cruzi. Kind of test: Antitrypanosomal activity against Trypanosoma cruzi Y bloodstream trypomastigotes assessed as microtubule axoneme structure after 24 hrs by transmission electron micrograph. It counts as functional, organism-based.
The subject of test [14] is Trypanosoma cruzi. The experiment in a line: Antitrypanosomal activity against Trypanosoma cruzi Y amastigotes assessed as alteration in nuclear morphology at IC50 after 24 hrs by transmission electron microscopy. The format is functional, organism-based.
For test [15], the system named is Trypanosoma cruzi. The experiment in a line: Antitrypanosomal activity against Trypanosoma cruzi Y amastigotes assessed as vacuolization and loss of cytoplasm components at IC50 after 24 hrs by transmission electron microscopy. The format is functional, organism-based.
Test [16] deals with Trypanosoma cruzi. The experiment in a line: Antitrypanosomal activity against Trypanosoma cruzi Y amastigotes assessed as disorganization of kinetoplast at IC50 after 24 hrs by transmission electron microscopy. It counts as functional, organism-based.
Test [17] concerns Trypanosoma cruzi. Kind of test: Antitrypanosomal activity against Trypanosoma cruzi Y bloodstream trypomastigotes assessed as parasite death at 32 uM after 2 hrs by light microscope. The format is functional.
Test [18] has as its system Trypanosoma cruzi. Kind of test: Antitrypanosomal activity against Trypanosoma cruzi Y bloodstream trypomastigotes assessed as parasite death at 32 uM after 24 hrs by light microscope. The format is functional.
The test system of test [19] is Trypanosoma cruzi. Kind of test: Antitrypanosomal activity against Trypanosoma cruzi Y bloodstream trypomastigotes assessed as alteration in microtubule organization after 24 hrs by transmission electron micrograph. It counts as functional, organism-based.
Test [20] relates to Trypanosoma cruzi. Kind of test: Antitrypanosomal activity against Trypanosoma cruzi Y bloodstream trypomastigotes assessed as alteration in mitochondria-kinetoplast complex after 24 hrs by transmission electron micrograph. The format is functional, organism-based.
In test [21] the test system is Trypanosoma cruzi. The experiment in a line: Antitrypanosomal activity against Trypanosoma cruzi Y bloodstream trypomastigotes assessed as intracellular dilated membrane profile after 24 hrs by transmission electron micrograph. The format is functional, organism-based.

SMILES strings stand for the structures. Activity calls are given as the source filed them. No cut-off for these calls is given here.

With `Cc1ccc(C(=N)Nc2ccc(-c3ccc(-c4ccc(NC(=N)c5ccc(C)cn5)cc4OC(C)C)o3)c(OC(C)C)c2)nc1`, the outcome with Trypanosoma cruzi [1] was Active. The Activity in the test on Trypanosoma cruzi [2] came out at 95%; with Trypanosoma cruzi [3], 50%; with Trypanosoma cruzi [4], 49%; with Trypanosoma cruzi [7], 55%. In addition, the results for the IC50 with Trypanosoma cruzi [5] and with Trypanosoma cruzi [6] were 15 nM and 1140 nM, respectively.

With `Cc1cc(NC(=N)c2ccccn2)ccc1-c1ccc(-c2ccc(NC(=N)c3ccccn3)cc2C)o1`, the Activity in the test on Trypanosoma cruzi [2] is given as 95%; in the test with Trypanosoma cruzi [3] it was 55%; with Trypanosoma cruzi [7], 54%. For the same compound, the figures for the IC50 in the test with Trypanosoma cruzi [5] and in the test with Trypanosoma cruzi [6] were 450 nM and 240 nM, respectively. The outcome in the test with Trypanosoma cruzi [8] and with Trypanosoma cruzi [9] was Active.

Consider `N=C(Nc1ccc(-c2cc(-c3ccccc3)c(-c3ccc(NC(=N)c4ccccn4)cc3)o2)cc1)c1ccccn1`, for which the Activity in the test on Trypanosoma cruzi [2] was determined as 100%; with Trypanosoma cruzi [10] it was 55%; in the test with Trypanosoma cruzi [7] it was 59%. In addition, the outcome in the test with Trypanosoma cruzi [3], in the test with Trypanosoma cruzi [11], with Trypanosoma cruzi [12], in the test on Trypanosoma cruzi [13], in the test with Trypanosoma cruzi [14] and in the test with Trypanosoma cruzi [15] was Active. Moreover, the result with Trypanosoma cruzi [16] and in the test with Trypanosoma cruzi [9] was Active. The IC50 came out at 90 nM in the test on Trypanosoma cruzi [5] and 8.6 nM with Trypanosoma cruzi [6].

Turning to `COc1cc(NC(=N)N)ccc1-c1ccc(-c2ccc(NC(=N)N)cc2OC)o1`, the Activity in the test on Trypanosoma cruzi [17] was found to be 23%; in the test on Trypanosoma cruzi [18] it was 84%. Also, the IC50 with Trypanosoma cruzi [5] was 19400 nM; with Trypanosoma cruzi [6], > 10600 nM. In addition, the outcome with Trypanosoma cruzi [11], in the test with Trypanosoma cruzi [19], in the test on Trypanosoma cruzi [13], in the test with Trypanosoma cruzi [20] and in the test with Trypanosoma cruzi [21] was Active. Moreover, the outcome in the test with Trypanosoma cruzi [7] was inactive.

One may read the IC50 as the concentration needed to halve the response being measured.
